Tests used:
[1] = molecular target: Serine/threonine-protein kinase Sgk1 (Homo sapiens) (UniProt O00141); assay: Inhibition of SGK1 using fluorescent labelled substrate at 5 uM by caliper method
[2] = molecular target: Ribosomal protein S6 kinase alpha-1 (Homo sapiens) (UniProt Q15418); assay: Inhibition of RSK1 using fluorescent labelled substrate at 5 uM by caliper method
[3] = molecular target: Serine/threonine-protein kinase pim-1 (Homo sapiens) (UniProt P11309); assay: Inhibition of PIM1 using fluorescent labelled substrate at 5 uM by caliper method
[4] = molecular target: Fibroblast growth factor receptor 1 (Homo sapiens) (UniProt P11362); assay: Inhibition of FGFR1 using fluorescent labelled substrate at 5 uM by caliper method
[5] = molecular target: RAC-gamma serine/threonine-protein kinase (Homo sapiens, UniProt Q9Y243); assay: Inhibition of Akt3 (1 to 479) expressed in Sf9 cells using biotin-GRPRTSSFAEG as substrate after 20 mins by Alpha-screen assay
Cytochrome P450 2C19 = Cytochrome P450 2C19 (Homo sapiens, UniProt P33261); assay: Inhibition of CYP2C19 in human liver microsomes using S-mephenytoin as substrate after 10 mins; format: ADME, Microsome
[6] = molecular target: T1, RAC-alpha serine/threonine-protein kinase (Homo sapiens, UniProt P31749); assay: Inhibition of Akt 1 in human AN3CA cells assessed as phosphorylation of Akt at T308 after 2 hrs by Western Blot analysis; format: cell-based, AN3-CA
[7] = molecular target: T1, RAC-alpha serine/threonine-protein kinase; assay: Inhibition of Akt1 in human A2780 cells assessed as phosphorylation of Akt at S473 after 2 hrs by Western Blot analysis; format: cell-based
[8] = molecular target: T1, RAC-alpha serine/threonine-protein kinase; assay: Inhibition of Akt1 in human AN3CA cells assessed as phosphorylation PRAS40 at T246 after 2 hrs by Western Blot analysis; format: cell-based, AN3-CA
[9] = molecular target: T1, RAC-alpha serine/threonine-protein kinase; conditions: Sf9
Cytochrome P450 1A2 = molecular target: T2, Cytochrome P450 1A2 (Homo sapiens, UniProt P05177); assay: Inhibition of CYP1A2 in human liver microsomes using phenacetin as substrate after 10 mins; format: ADME, Microsome
T2 sequence (P05177 whole entry): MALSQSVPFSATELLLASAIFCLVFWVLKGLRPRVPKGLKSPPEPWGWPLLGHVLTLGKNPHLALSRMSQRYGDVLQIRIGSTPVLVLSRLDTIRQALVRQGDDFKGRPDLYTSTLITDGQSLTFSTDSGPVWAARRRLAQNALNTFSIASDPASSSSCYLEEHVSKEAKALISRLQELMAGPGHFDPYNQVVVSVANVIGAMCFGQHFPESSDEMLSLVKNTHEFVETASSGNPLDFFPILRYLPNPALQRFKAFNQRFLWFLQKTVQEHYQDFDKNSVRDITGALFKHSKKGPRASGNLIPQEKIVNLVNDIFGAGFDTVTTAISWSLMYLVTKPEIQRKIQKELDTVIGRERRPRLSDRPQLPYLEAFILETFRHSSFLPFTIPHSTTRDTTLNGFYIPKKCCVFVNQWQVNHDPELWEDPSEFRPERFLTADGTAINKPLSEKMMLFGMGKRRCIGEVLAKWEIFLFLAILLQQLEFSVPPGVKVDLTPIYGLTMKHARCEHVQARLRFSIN

[10] = molecular target: Rho-associated protein kinase 1 (Homo sapiens) (UniProt Q13464); assay: Inhibition of ROCK1 using fluorescent labelled substrate at 5 uM by caliper method
[11] = molecular target: Protein kinase C beta type (Homo sapiens) (UniProt P05771); assay: Inhibition of PKCbeta1 using fluorescent labelled substrate at 5 uM by caliper method
[12] = molecular target: MAP kinase-activated protein kinase 2 (Homo sapiens) (UniProt P49137); assay: Inhibition of MAPKAPK2 using fluorescent labelled substrate at 5 uM by caliper method
[13] = molecular target: Cyclin-dependent kinase 2/cyclin E (Homo sapiens) (UniProt P24864+P24941+O96020); assay: Inhibition of CDK2/cyclinE using fluorescent labelled substrate at 5 uM by caliper method; format: protein-complex assay
Cytochrome P450 2C9 = Cytochrome P450 2C9 (Homo sapiens, UniProt P11712); assay: Inhibition of CYP2C9 in human liver microsomes using tolbutamide as substrate after 10 mins; format: ADME, Microsome
[14] = molecular target: Ribosomal protein S6 kinase alpha-4 (Homo sapiens) (UniProt O75676); assay: Inhibition of MSK2 using fluorescent labelled substrate at 5 uM by caliper method
[15] = molecular target: Protein kinase C eta type (Homo sapiens) (UniProt P24723); assay: Inhibition of PKCeta using fluorescent labelled substrate at 5 uM by caliper method
[16] = molecular target: RAC-beta serine/threonine-protein kinase (Homo sapiens, UniProt P31751); assay: Binding affinity to Akt2 (1 to 481) expressed in Sf9 cells assessed as change in melting temperature at 15 uM
[17] = molecular target: 3-phosphoinositide-dependent protein kinase 1 (Homo sapiens) (UniProt O15530); assay: Inhibition of PDK1 using fluorescent labelled substrate at 5 uM by caliper method
[18] = molecular target: Insulin receptor (Homo sapiens) (UniProt P06213); assay: Inhibition of INSR using fluorescent labelled substrate at 5 uM by caliper method
[19] = molecular target: cAMP-dependent protein kinase catalytic subunit PRKX (Homo sapiens) (UniProt P51817); assay: Inhibition of PRKX using fluorescent labelled substrate at 5 uM by caliper method
[20] = molecular target: Protein kinase C alpha type (Homo sapiens) (UniProt P17252); assay: Inhibition of PKCalpha using fluorescent labelled substrate at 5 uM by caliper method
[21] = molecular target: Protein kinase C theta type (Homo sapiens) (UniProt Q04759); assay: Inhibition of PKCtheta using fluorescent labelled substrate at 5 uM by caliper method
[22] = molecular target: Calcium/calmodulin-dependent protein kinase type II subunit delta (Homo sapiens) (UniProt Q13557); assay: Inhibition of CAMK2delta using fluorescent labelled substrate at 5 uM by caliper method
[23] = molecular target: Ribosomal protein S6 kinase alpha-5 (Homo sapiens) (UniProt O75582); assay: Inhibition of MSK1 using fluorescent labelled substrate at 5 uM by caliper method
A2780 = assay: Antiproliferative activity against human A2780 cells after 72 hrs by MTS assay; format: functional, cell-based; conditions: A2780, 72 h
[24] = molecular target: Mitogen-activated protein kinase 3 (Homo sapiens) (UniProt P27361); assay: Inhibition of MAPK3 using fluorescent labelled substrate at 5 uM by caliper method
[25] = molecular target: Serine/threonine-protein kinase PAK 3 (Homo sapiens) (UniProt O75914); assay: Inhibition of PAK3 using fluorescent labelled substrate at 5 uM by caliper method
[26] = molecular target: Proto-oncogene tyrosine-protein kinase receptor Ret (Homo sapiens) (UniProt P07949); assay: Inhibition of RET using fluorescent labelled substrate at 5 uM by caliper method
Cytochrome P450 2D6 = Cytochrome P450 2D6 (Homo sapiens, UniProt P10635); assay: Inhibition of CYP2D6 in human liver microsomes using bufuralol as substrate after 10 mins; format: ADME, Microsome
[27] = molecular target: T1, RAC-alpha serine/threonine-protein kinase; assay: Inhibition of Akt1 in human AN3CA cells assessed as phosphorylation of Akt at S473 after 2 hrs by Western Blot analysis; format: cell-based, AN3-CA
[28] = molecular target: Angiopoietin-1 receptor (Homo sapiens) (UniProt Q02763); assay: Inhibition of TIE2 using fluorescent labelled substrate at 5 uM by caliper method

T1 sequence (P31749 whole entry): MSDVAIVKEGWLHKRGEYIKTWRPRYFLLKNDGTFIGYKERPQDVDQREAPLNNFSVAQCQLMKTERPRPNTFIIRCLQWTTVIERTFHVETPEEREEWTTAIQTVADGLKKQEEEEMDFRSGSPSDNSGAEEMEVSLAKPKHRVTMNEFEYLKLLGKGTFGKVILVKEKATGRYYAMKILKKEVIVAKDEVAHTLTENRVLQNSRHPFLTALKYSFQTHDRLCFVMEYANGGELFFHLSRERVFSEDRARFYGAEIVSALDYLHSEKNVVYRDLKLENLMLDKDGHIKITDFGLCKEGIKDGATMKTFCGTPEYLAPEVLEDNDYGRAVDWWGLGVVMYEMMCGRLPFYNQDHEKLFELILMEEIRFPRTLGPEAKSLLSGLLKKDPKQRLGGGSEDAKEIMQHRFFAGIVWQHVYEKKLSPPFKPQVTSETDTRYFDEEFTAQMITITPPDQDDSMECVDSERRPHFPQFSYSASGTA
Sequence of Serine/threonine-protein kinase PAK 3 (Homo sapiens) (O75914 whole entry, looked up): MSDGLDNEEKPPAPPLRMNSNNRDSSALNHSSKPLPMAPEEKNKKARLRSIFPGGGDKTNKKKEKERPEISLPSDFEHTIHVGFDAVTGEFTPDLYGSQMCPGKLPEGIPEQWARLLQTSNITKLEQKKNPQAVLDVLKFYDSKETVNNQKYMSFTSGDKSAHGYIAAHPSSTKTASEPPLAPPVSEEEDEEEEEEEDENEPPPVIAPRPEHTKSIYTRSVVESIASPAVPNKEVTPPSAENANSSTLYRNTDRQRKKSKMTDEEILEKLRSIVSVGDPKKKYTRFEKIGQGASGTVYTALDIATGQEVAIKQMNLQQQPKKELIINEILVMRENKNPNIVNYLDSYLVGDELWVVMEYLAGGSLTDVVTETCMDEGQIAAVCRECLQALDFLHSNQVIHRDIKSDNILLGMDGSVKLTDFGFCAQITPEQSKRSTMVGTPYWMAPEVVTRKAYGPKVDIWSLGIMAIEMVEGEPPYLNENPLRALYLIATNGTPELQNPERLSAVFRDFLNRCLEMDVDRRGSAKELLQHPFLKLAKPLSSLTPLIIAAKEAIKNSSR
Sequence of Cytochrome P450 2C9 (P11712 whole entry): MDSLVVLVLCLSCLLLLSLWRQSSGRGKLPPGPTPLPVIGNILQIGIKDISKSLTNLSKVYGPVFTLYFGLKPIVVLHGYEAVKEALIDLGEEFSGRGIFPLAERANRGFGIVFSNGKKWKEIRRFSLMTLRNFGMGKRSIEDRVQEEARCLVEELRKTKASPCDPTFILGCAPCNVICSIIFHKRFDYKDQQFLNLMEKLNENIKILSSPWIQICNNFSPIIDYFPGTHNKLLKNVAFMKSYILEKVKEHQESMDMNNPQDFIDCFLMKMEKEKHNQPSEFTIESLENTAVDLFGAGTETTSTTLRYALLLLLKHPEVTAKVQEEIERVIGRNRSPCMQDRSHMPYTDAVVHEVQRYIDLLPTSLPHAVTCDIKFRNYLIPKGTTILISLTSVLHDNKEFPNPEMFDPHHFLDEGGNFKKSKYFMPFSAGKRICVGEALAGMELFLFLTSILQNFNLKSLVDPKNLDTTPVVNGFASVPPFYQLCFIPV
Sequence of Protein kinase C beta type (Homo sapiens) (P05771 2-671 limits assumed): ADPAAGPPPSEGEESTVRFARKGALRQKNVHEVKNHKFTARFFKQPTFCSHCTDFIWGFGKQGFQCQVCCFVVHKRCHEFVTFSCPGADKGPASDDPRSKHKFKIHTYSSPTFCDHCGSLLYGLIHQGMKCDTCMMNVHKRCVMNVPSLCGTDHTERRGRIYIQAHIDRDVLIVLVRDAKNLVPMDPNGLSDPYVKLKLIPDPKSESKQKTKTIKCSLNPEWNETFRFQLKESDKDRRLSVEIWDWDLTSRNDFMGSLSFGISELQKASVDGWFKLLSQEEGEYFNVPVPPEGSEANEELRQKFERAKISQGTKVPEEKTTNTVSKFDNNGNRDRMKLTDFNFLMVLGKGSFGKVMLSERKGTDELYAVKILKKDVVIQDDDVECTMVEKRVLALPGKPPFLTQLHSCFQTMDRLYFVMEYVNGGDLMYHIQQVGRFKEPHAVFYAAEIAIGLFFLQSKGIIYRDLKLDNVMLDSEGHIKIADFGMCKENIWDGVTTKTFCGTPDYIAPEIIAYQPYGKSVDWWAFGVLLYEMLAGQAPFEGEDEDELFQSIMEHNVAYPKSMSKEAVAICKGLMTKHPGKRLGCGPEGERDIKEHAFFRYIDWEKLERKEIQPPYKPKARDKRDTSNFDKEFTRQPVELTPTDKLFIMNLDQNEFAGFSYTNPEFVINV
Sequence of Cytochrome P450 2D6 (P10635 whole entry): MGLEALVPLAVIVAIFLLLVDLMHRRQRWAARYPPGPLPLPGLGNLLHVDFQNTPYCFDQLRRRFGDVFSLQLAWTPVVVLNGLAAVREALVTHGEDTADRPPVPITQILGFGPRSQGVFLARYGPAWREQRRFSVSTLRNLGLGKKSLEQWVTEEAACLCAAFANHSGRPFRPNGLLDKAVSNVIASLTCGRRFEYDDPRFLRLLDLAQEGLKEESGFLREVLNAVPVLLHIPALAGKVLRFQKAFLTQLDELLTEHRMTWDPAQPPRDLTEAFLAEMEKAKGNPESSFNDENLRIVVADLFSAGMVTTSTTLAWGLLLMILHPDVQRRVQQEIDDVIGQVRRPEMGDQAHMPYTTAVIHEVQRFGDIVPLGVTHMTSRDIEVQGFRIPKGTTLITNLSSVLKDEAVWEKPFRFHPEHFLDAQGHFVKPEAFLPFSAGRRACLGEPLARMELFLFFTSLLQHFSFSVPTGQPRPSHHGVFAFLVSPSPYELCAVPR
Sequence of RAC-gamma serine/threonine-protein kinase (Q9Y243 whole entry): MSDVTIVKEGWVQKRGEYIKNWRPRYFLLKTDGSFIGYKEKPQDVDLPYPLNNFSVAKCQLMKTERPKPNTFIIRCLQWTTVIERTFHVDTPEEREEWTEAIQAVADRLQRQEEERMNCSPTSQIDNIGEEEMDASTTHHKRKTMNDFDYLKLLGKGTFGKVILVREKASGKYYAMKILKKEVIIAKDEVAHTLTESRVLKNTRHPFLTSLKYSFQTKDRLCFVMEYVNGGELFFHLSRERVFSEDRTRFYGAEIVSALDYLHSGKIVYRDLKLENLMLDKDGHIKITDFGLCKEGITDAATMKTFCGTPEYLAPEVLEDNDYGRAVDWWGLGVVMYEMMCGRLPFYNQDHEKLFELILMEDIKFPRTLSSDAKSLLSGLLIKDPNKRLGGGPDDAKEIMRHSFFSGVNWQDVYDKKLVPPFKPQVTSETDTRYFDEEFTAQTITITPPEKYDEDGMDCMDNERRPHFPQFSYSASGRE
Sequence of Fibroblast growth factor receptor 1 (Homo sapiens) (P11362 22-822 limits assumed): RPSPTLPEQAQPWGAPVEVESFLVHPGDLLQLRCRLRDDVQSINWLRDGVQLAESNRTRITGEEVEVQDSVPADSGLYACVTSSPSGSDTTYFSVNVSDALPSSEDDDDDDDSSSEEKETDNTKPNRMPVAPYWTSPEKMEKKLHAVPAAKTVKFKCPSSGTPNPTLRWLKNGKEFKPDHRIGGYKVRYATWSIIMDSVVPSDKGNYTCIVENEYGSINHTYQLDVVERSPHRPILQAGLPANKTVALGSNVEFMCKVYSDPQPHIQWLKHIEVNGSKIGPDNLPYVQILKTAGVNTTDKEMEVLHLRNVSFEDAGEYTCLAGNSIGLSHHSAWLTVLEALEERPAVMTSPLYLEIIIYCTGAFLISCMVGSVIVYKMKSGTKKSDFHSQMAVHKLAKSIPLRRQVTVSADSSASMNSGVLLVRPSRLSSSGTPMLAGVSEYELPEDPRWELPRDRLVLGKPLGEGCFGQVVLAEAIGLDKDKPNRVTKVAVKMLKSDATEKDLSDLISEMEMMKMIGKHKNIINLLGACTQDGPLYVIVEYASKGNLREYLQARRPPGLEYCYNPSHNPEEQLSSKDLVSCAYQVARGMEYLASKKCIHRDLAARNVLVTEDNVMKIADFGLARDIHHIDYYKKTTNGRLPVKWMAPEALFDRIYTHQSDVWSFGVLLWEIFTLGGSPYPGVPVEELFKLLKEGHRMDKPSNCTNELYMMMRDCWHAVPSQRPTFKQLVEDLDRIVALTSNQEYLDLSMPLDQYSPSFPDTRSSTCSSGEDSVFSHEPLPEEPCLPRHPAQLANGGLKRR
Sequence of cAMP-dependent protein kinase catalytic subunit PRKX (Homo sapiens) (P51817 whole entry): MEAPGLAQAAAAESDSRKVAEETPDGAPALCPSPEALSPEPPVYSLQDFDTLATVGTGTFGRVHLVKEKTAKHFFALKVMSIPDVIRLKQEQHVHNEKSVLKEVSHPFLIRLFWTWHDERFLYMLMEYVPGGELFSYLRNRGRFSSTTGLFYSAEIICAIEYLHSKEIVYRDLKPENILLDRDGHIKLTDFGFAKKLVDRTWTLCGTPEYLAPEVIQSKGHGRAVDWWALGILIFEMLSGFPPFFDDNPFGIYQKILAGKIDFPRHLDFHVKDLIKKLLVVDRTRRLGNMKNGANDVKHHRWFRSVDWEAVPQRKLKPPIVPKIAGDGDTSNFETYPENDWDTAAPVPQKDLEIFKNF

SMILES	inhibition [1]	inhibition [2]	inhibition [3]	inhibition [4]	IC50 [5]	IC50 (Cytochrome P450 2C19)	IC50 [6]	IC50 [7]	IC50 [8]	ΔTm [9]	IC50 (Cytochrome P450 1A2)	inhibition [10]	inhibition [11]	inhibition [12]	inhibition [13]	IC50 (Cytochrome P450 2C9)	inhibition [14]	inhibition [15]	ΔTm [16]	inhibition [17]	further results
Nc1ncccc1-c1nc2cccnc2n1-c1ccc(CC(=O)Nc2ccccc2)cc1	> 25%	> 25%	> 25%	> 25%	22 µM	> 10 µM	> 10 µM	0.21 µM	> 10 µM	6.7 °C	> 10 µM	> 25%	> 25%	> 25%	> 25%	> 10 µM	> 25%	> 25%	1.2 °C	> 25%	inhibition [18]: > 25%; inhibition [19]: > 25%; inhibition [20]: > 25%; inhibition [21]: > 25%; inhibition [22]: > 25%; inhibition [23]: > 25%; IC50 (A2780): 57 µM; inhibition [24]: > 25%; inhibition [25]: > 25%; inhibition [26]: > 25%; IC50 (Cytochrome P450 2D6): > 10 µM; IC50 [27]: 2.5 µM; inhibition [28]: > 25%
Nc1ncccc1-c1nc2cccnc2n1-c1ccc(CNC(=O)c2ccccc2)cc1	> 25%	> 25%	> 25%	> 25%	24 µM	> 10 µM	> 10 µM	0.41 µM	> 10 µM	6.4 °C	> 10 µM	> 25%	> 25%	> 25%	> 25%	> 10 µM	> 25%	> 25%	1.3 °C	> 25%	inhibition [18]: > 25%; inhibition [19]: > 25%; inhibition [20]: > 25%; inhibition [21]: > 25%; inhibition [22]: > 25%; inhibition [23]: > 25%; IC50 (A2780): > 100 µM; inhibition [24]: > 25%; inhibition [25]: > 25%; inhibition [26]: > 25%; IC50 (Cytochrome P450 2D6): > 10 µM; IC50 [27]: 5.6 µM; inhibition [28]: > 25%
